Test system: GABA-A receptor
Assay: block of evoked GABA-A receptor currents in layer […] pyramidal neurons

Compound	EC50 [µM]
COc1ccc([N+](=O)[O-])c2c1CCN2C(=O)CC[C@H](N)C(=O)O [MNI-Glu]	105
DEAC450-Glu [compound 7]	~33
RuBi-Glu	7.7

Source: PMC4079120 (Journal of the American Chemical Society, 2013)
